In assay [1] the test system is HL-60 (Leukemia). Put plainly: Proliferation of HL-60. Format: cell-based. The conditions noted are these: for pIC50: Homo sapiens, HL-60, read-out: IC50 HL-60 (Leukemia). As for the experimental part:
(§1) The diterpenoid compounds were tested in A549, a non-small cell lung cancer cell line harboring a K-Ras activating mutation. Briefly, A549 cells at a density of 1,000 cells/well were seeded in 96-well plates and incubated at 37° C. for 24 hours. A series of different concentrations of compound stocks (500×) were prepared by 3-fold serial dilution in DMSO. These compounds were further diluted in culture media and then added to cells so that the final DMSO concentration was not exceeding 0.25%. After 96 hours of incubation, 50 μL of CellTiter Glo reagent (Promega) was added to each well and luminescence was measured after 10 minutes using EnVision (PerkinElmer). Luminescence from cells treated with DMSO alone was set as Max and % of inhibition was calculated as follows: Inhibition %=(Max-Sample value)/Max×100. Data was analyzed using XL-fit software (ID Business Solutions Ltd.) and IC50, relative IC50, and % of top inhibition was calculated. Some of the compounds in this disclosure were very potent in blocking proliferation of A549 lung cancer cells at low nM range. In addition, potency of inhibiting A549 proliferation correlated well with its binding affinity to PKCs for this series of compounds. In other words, higher affinity binders had stronger inhibitory effects on A549 proliferation. This further support the notion that activation, rather than inhibition, of certain PKC isoforms is required to block proliferation of cancer cells, some of which may harbor K-Ras mutations. This is in sharp contrast to previous literature and common belief that inhibition of PKC is necessary to block cancer cell growth (Kang, 2014, New Journal of Science, 2014:1-36). Data presented here is in agreement with recent findings that many loss-of-function but not gain-of-function mutations of PKC isoforms have been identified in many human cancers (Antal et al., 2015, Cell, 160:489-502).
(§2) The compounds in this disclosure were tested for their potency in blocking proliferation of a few other cancer cells lines, including K-Ras mutant pancreatic cell lines Panc2.13 and KP-4, leukemia cell line HL-60, and lymphoma cell lines Namalwa and Mino. Similar procedures as in Example 67 were followed. Initial cell numbers seeded in 96-well plates were different for different cell lines: 3000 cells/well for Panc2.13; 800-1000 cells/well for KP-4; 5000 cells/well for HL-60; 5000-10000 cells/well for Namalwa and Mino. A ratio of (IC50 of K101)/(IC50 of compound) (data in parenthesis in Table 5) was used to normalize the compound potency from different assay batches to a common comparator K101.

The subject of assay [2] is A549 cell line. Put plainly: Proliferation of A549 (CellTiter Glo). In kind it is cell-based. The settings on record: read-out: IC50 μM (A549 Cell Line). As for the experimental part: as §1
Background: In ATP-based viability assays light output follows the ATP content of the culture.

The test system of assay [3] is NFκB-driven transcription in HeLa-NFκB luciferase reporter cell line. Put plainly: NFκB luciferase reporter assay. The conditions noted are these: Homo sapiens, HeLa, 16 h, read-out: NFκB-luc HeLa cells EC50 (μM). (In a reporter assay the amount or activity of a reporter protein is the signal.)
Assay [4] concerns Mino (Lymphoma). Put plainly: Proliferation of Mino. Format: cell-based. The settings on record: for pIC50: Homo sapiens, MINO, read-out: IC50 Mino (Lymphoma). How it is done:
as §1, §2

The test system of assay [5] is Namalwa (Lymphoma). Put plainly: Proliferation of Namalwa. The conditions noted are these: for pIC50: read-out: IC50 Namalwa (Lymphoma). Format: cell-based. As for the experimental part:
as §1, §2

In assay [6] the target is T1, C1b domain of human PKCδ (Homo sapiens, UniProt Q05655).
T1 construct: Genes encoding C1b domains of human PKCα, δ, ε, θ, and PKD1 (PKCμ) were synthesized; made in house; host or cells: E. coli BL21(DE3)
T1 sequence (Q05655 230-280 limits assumed): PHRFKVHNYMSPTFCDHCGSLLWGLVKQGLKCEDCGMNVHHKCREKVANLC
Put plainly: biochemical. The settings on record: 3H-PDBu competition. In kind it is binding. How it is done:
Compounds described in this disclosure were tested for binding affinity to C1b domain of PKC isoforms. Compound binding affinity to C1b domain of PKC isoforms was derived from competitive binding assay using radioactive tracer ^3H-PDBu and recombinant GST-C1b or full-length of human PKC proteins based on modified procedures from Methods in Molecular Biology, vol.
Genes encoding C1b domains of human PKCα, δ, ε, θ, and PKD1 (PKCμ) were synthesized and inserted into pGEX-2TK or pGEX-4T1 vectors for expression and production of GST-C1b proteins in E. coli BL21(DE3) via IPTG induction. The target proteins were purified by glutathione sepharose 4B and followed by ion exchange chromatography if needed to achieve purity >70%. Aliquots of the purified proteins were stored at −80 degree for binding assay (storage buffer: 20 mM Tris pH 8.0, 200 mM NaCl, 10% glycerol, 1 mM DTT).
The plate was incubated at 37° C. on a shaker at 300 rpm for 10 minutes and then put on ice for 20 minutes. […] The bottom of the filter plate was sealed and 50 μL of MicroScint-20 (PerkinElmer) cocktail was added to each well. ^3H-PDBu trapped in each well was counted using PerkinElmer MicroBeta2 Reader. Data were analyzed using GraphPad Prism5 with the model “log(inhibitor) vs. response-variable slope” to fit the IC50, and then IC50 was transformed to Ki using Cheng-Prusoff equation: Ki=IC50/(1+added radio ligand/Kd). Kd is the binding affinity of each protein preparation to ^3H-PDBu, determined experimentally.

pIC50, pKi: −log10 of the molar value. Like-named read-outs stand apart in the source and are kept apart here.

The term pIC50 denotes the negative decadic logarithm of the IC50, by convention in mol/L. Usually IC50 stands for the concentration that gives 50% inhibition. Broadly, the EC50 is the concentration at which the effect is half-maximal. For `CC1=C[C@H]2[C@@]3(O)[C@H](C)C[C@]4(OC(=O)CCc5ccc(C(F)(F)F)cc5)[C@H]([C@@H]3C=C(CO)C[C@]2(O)C1=O)C4(C)C`, in assay [1], the “ratio (IC50 of K101)/(IC50 of compound) HL-60” value is reported as 72 and the pIC50 was 8.00 to 9.00. In assay [2] (Homo sapiens, A549, 96 h), the IC50 lay within 0.01 to 0.03 µM. The 50% effective concentration (EC50) in assay [3] is 0.01 to 0.03 µM. Further, in assay [4], the “ratio (IC50 of K101)/(IC50 of compound) Mino” value came to 75 and the pIC50 was above 9.00. In addition, in assay [5], the “ratio (IC50 of K101)/(IC50 of compound) Namalwa” value worked out at 13.8 and the pIC50 is 8.00 to 9.00.

For `CC1=C[C@H]2[C@@]3(O)[C@H](C)C[C@]4(OC(=O)C5CC6(CNC6)C5)[C@H]([C@@H]3C=C(CO)C[C@]2(O)C1=O)C4(C)C`, the IC50 in assay [2] (Homo sapiens, A549, 96 h) is above 30 µM.

Broadly, the pKi is the Ki on a negative log10 scale, so that one unit is a factor of ten. Regarding `CCCC[C@H](N)C(=O)O[C@@]12C[C@@H](C)[C@@]3(O)[C@@H](C=C(CO)C[C@]4(O)C(=O)C(C)=C[C@@H]34)[C@@H]1C2(C)C`, the IC50 in assay [2] (Homo sapiens, A549, 96 h) fell in the range of 0.6 to 1 µM. The compound further showed a pKi in assay [6] of 7.52 to 8.00.

Turning to `CC1=C[C@H]2[C@@]3(O)[C@H](C)C[C@]4(OC(=O)CCc5c[nH]c6ncccc56)[C@H]([C@@H]3C=C(CO)C[C@]2(O)C1=O)C4(C)C`, the IC50 in assay [2] (Homo sapiens, A549, 96 h) was in the range of 2 to 5 µM.

As to `CC1=C[C@H]2[C@@]3(O)[C@H](C)C[C@]4(OC(=O)CCc5cnn(C)c5)[C@H]([C@@H]3C=C(CO)C[C@]2(O)C1=O)C4(C)C`, the IC50 in assay [2] (Homo sapiens, A549, 96 h) fell in the range of 2 to 5 µM.

Regarding `CC1=C[C@H]2[C@@]3(O)[C@H](C)C[C@]4(OC(=O)CCCc5ccccc5)[C@H]([C@@H]3C=C(CO)C[C@]2(O)C1=O)C4(C)C`, in assay [1], the “ratio (IC50 of K101)/(IC50 of compound) HL-60” value is recorded as 32.7 and the pIC50 is 7.52 to 8.00. The half-inhibitory concentration (IC50) in assay [2] (Homo sapiens, A549, 96 h) lay in the range of 0.01 to 0.03 µM. The EC50 in assay [3] lay within 0.01 to 0.03 µM. Besides, in assay [4], the “ratio (IC50 of K101)/(IC50 of compound) Mino” value was 37.5 and the pIC50 is 8.00 to 9.00. Also, in assay [5], the “ratio (IC50 of K101)/(IC50 of compound) Namalwa” value was 8.63 and the negative-log IC50 (pIC50) is 8.00 to 9.00.

`CC1=C[C@H]2[C@@]3(O)[C@H](C)C[C@]4(OC(=O)[C@@H](N)CC5CCC5)[C@H]([C@@H]3C=C(CO)C[C@]2(O)C1=O)C4(C)C`: the IC50 in assay [2] (Homo sapiens, A549, 96 h) is 1 to 2 µM.

For the compound `CC1=C[C@H]2[C@@]3(O)[C@H](C)C[C@]4(OC(=O)[C@@H](N)CCS(C)(=O)=O)[C@H]([C@@H]3C=C(CO)C[C@]2(O)C1=O)C4(C)C`, the half-inhibitory concentration (IC50) in assay [2] (Homo sapiens, A549, 96 h) is above 30 µM.

Turning to `CC1=C[C@H]2[C@@]3(O)[C@H](C)C[C@]4(OC(=O)[C@@H](N)C5Cc6ccccc6C5)[C@H]([C@@H]3C=C(CCl)C[C@]2(O)C1=O)C4(C)C`, the IC50 in assay [2] (96 hours, CellTiter Glo) is 0.06 to 0.1 µM.

For `CC1=C[C@H]2[C@@]3(O)[C@H](C)C[C@]4(OC(=O)[C@@H](N)CC5CCCC5)[C@H]([C@@H]3C=C(CO)C[C@]2(O)C1=O)C4(C)C`, in assay [2] (Homo sapiens, A549, 96 h), the IC50 was in the range of 0.1 to 0.2 µM.

For `CC1=C[C@H]2[C@@]3(O)[C@H](C)C[C@]4(OC(=O)CCCCCCCCCCC(=O)O)[C@H]([C@@H]3C=C(CO)C[C@]2(O)C1=O)C4(C)C`, in assay [2] (Homo sapiens, A549, 96 h), the IC50 lay in the range of 10 to 30 µM.

For the compound `CSCC[C@H](N)C(=O)O[C@@]12C[C@@H](C)[C@@]3(O)[C@@H](C=C(CO)C[C@]4(O)C(=O)C(C)=C[C@@H]34)[C@@H]1C2(C)C`, the IC50 in assay [2] (Homo sapiens, A549, 96 h) was in the range of 5 to 10 µM.

Turning to `CC1=C[C@H]2[C@@]3(O)[C@H](C)C[C@]4(OC(=O)[C@@H](N)CCCCCCc5ccccc5)[C@H]([C@@H]3C=C(COC(=O)[C@@H](N)C(C)C)C[C@]2(O)C1=O)C4(C)C`, the concentration for half-maximal inhibition (IC50) in assay [2] (Homo sapiens, A549, 96 hours, CellTiter Glo) was 0.01 to 0.03 µM.
